This passage reports EC50 and Emax results from patent US20260167615A1, “COMPOUNDS AND COMPOSITIONS AS GPR52 MODULATORS” (Neurocrine Biosciences, Inc., priority 2022, published 2026).

As usually defined, the EC50 is the concentration at which the effect is half-maximal. One may read the Emax as the maximal effect, on the per cent scale that the assay sets.

The test has as its target recombinant human GPR52 (Homo sapiens, UniProt Q9Y2T5). The test can be described thus: HTRF cAMP assay, GPR52 activity (Example A). It is filed as cell-based. Particulars: for EC50: average EC50 (n=1 to 15), Flp-In-CHO cells stably expressing recombinant human GPR52, cAMP HTRF, read-out: EC50 (N=); for Emax: maximum cAMP at 10 μM or 31.6 μM test compound, as percentage of Emax of control compound 4-(3-(3-fluoro-5-(trifluoromethyl)benzyl)-5-methyl-4,5-dihydro-1H-1,2,4-triazol-1-yl)-2-methylbenzamide. The method in brief: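 Flp-In CHO cells stably expressing human GPR52 (20,000/well) incubated 30 min at room temperature with compound, cAMP then quantified by competitive HTRF. EC50 from nonlinear fits of cAMP-transformed data normalized to positive control; Emax is top plateau at 10 or 31.6 μM, given as % of a reference agonist's Emax.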
(TR-FRET usually uses a lanthanide donor and a delayed reading to cut background.)

Chain of recombinant human GPR52 (Q9Y2T5 whole entry): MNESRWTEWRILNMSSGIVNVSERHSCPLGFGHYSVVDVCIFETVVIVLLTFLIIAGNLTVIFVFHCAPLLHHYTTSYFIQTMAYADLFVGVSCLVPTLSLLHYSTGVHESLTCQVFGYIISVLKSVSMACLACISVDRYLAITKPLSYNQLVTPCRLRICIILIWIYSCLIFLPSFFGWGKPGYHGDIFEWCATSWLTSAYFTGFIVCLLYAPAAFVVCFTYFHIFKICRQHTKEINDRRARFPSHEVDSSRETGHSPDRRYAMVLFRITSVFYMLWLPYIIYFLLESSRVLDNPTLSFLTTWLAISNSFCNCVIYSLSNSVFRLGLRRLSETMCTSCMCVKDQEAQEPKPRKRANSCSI

For `Cc1cc(-c2cc(Oc3ccc4cnn(C)c4c3)cc(CN)n2)ccc1C(N)=O` [Example 94, 4-(6-(aminomethyl)-4-((1-methyl-1H-indazol-6-yl)oxy)pyridin-2-yl)-2-methylbenzamide], the EC50 lay in the range of 0.101 to 1 µM and the Emax came out at 129%.
`CCc1cc(-c2cc(Oc3ccc4ncc(F)cc4c3)ccn2)ccc1C(N)=O` [Example 95, 2-ethyl-4-(4-((3-fluoroquinolin-6-yl)oxy)pyridin-2-yl)benzamide]: the EC50 fell in the range of 0.101 to 1 µM and the Emax is 138%.
On to `Cc1cc(-c2cc(Oc3ccc4ncc(F)cc4c3)ccn2)ccc1C(N)=O` [Example 96, 4-(4-((3-fluoroquinolin-6-yl)oxy)pyridin-2-yl)-2-methylbenzamide], for which the EC50 lay in the range of 0.101 to 1 µM and the Emax was 120%.
With `CCc1cc(-c2cc(Oc3cc(F)c4ncccc4c3)ccn2)ccc1C(N)=O` [Example 97, 2-ethyl-4-(4-((8-fluoroquinolin-6-yl)oxy)pyridin-2-yl)benzamide], the EC50 fell in the range of 0.101 to 1 µM and the Emax was 132%.
On to `Cc1cc(-c2cc(Oc3cc(F)c4ncccc4c3)ccn2)ccc1C(N)=O` [Example 98, 4-(4-((8-fluoroquinolin-6-yl)oxy)pyridin-2-yl)-2-methylbenzamide], for which the EC50 lay in the range of 0.101 to 1 µM and the Emax worked out at 120%.
Taken in the same sequence, the figures for `Cc1cc(-c2cc(Oc3ccc4ncc(Cl)cc4c3)ccn2)ccc1C(N)=O` [Example 99, 4-(4-((3-chloroquinolin-6-yl)oxy)pyridin-2-yl)-2-methylbenzamide] were 0.101 to 1 µM and 138%.
In the case of `Cc1cc(-c2cc(Oc3cc(Cl)c4ncccc4c3)ccn2)ccc1C(N)=O` [Example 100, 4-(4-((8-chloroquinolin-6-yl)oxy)pyridin-2-yl)-2-methylbenzamide], the EC50 is 0.101 to 1 µM and the Emax was determined as 112%.
Taken in the same sequence, the figures for `CCc1cc(-c2cc(Oc3cnc4cc(F)ccc4c3)ccn2)ccc1C(N)=O` [Example 101, 2-ethyl-4-(4-((7-fluoroquinolin-3-yl)oxy)pyridin-2-yl)benzamide] were 0.101 to 1 µM and 80%.
Taken in the same sequence, the figures for `CCc1cc(-c2cc(Oc3cnc4c(F)cccc4c3)ccn2)ccc1C(N)=O` [Example 102, 2-ethyl-4-(4-((8-fluoroquinolin-3-yl)oxy)pyridin-2-yl)benzamide] were 0.101 to 1 µM and 90%.
As for `Cc1cc(-c2cc(Oc3cnc4c(F)cccc4c3)ccn2)ccc1C(N)=O` [Example 103, 4-(4-((8-fluoroquinolin-3-yl)oxy)pyridin-2-yl)-2-methylbenzamide], the EC50 lay within 0.101 to 1 µM and the Emax was 60%.
With `CCc1cc(-c2cc(Oc3cnc4ccc(F)cc4c3)ccn2)ccc1C(N)=O` [Example 104, 2-ethyl-4-(4-((6-fluoroquinolin-3-yl)oxy)pyridin-2-yl)benzamide], the EC50 lay within 0.101 to 1 µM and the maximum response (Emax) came out at 110%.
For the compound `Cc1cc(-c2cc(Oc3cnc4ccc(F)cc4c3)ccn2)ccc1C(N)=O` [Example 105, 4-(4-((6-fluoroquinolin-3-yl)oxy)pyridin-2-yl)-2-methylbenzamide], the EC50 is 0.101 to 1 µM and the Emax stood at 51%.
As to `CCc1cc(-c2cc(Oc3ccc4ncccc4c3F)ccn2)ccc1C(N)=O` [Example 106, 2-ethyl-4-(4-((5-fluoroquinolin-6-yl)oxy)pyridin-2-yl)benzamide], the EC50 was 0.101 to 1 µM and the Emax came to 100%.
Take `CCc1cc(-c2cc(Oc3ccc4ncc(C)cc4c3)ccn2)ccc1C(N)=O` [Example 107, 2-ethyl-4-(4-((3-methylquinolin-6-yl)oxy)pyridin-2-yl)benzamide]: the EC50 lay within 0.025 to 0.1 µM and the Emax is 146%.
On to `Cc1cnc2ccc(Oc3ccnc(-c4ccc(C(N)=O)c(C)c4)c3)cc2c1` [Example 108, 2-methyl-4-(4-((3-methylquinolin-6-yl)oxy)pyridin-2-yl)benzamide], for which the EC50 was 0.101 to 1 µM and the Emax turned out to be 150%.
